{"source": "paper PMC11949107", "about": "“Polyunsaturated fatty acids and their endocannabinoid-related metabolites activity at human TRPV1 and TRPA1 ion channels expressed in HEK-293 cells” (PeerJ, 2025)", "key": {"human TRPA1": {"target": "T1, human TRPA1 (Homo sapiens, UniProt O75762)", "T1 construct": "Life Technologies (cells); host or cells: Flp-In T-REx HEK-293", "T1 sequence (O75762 whole entry)": "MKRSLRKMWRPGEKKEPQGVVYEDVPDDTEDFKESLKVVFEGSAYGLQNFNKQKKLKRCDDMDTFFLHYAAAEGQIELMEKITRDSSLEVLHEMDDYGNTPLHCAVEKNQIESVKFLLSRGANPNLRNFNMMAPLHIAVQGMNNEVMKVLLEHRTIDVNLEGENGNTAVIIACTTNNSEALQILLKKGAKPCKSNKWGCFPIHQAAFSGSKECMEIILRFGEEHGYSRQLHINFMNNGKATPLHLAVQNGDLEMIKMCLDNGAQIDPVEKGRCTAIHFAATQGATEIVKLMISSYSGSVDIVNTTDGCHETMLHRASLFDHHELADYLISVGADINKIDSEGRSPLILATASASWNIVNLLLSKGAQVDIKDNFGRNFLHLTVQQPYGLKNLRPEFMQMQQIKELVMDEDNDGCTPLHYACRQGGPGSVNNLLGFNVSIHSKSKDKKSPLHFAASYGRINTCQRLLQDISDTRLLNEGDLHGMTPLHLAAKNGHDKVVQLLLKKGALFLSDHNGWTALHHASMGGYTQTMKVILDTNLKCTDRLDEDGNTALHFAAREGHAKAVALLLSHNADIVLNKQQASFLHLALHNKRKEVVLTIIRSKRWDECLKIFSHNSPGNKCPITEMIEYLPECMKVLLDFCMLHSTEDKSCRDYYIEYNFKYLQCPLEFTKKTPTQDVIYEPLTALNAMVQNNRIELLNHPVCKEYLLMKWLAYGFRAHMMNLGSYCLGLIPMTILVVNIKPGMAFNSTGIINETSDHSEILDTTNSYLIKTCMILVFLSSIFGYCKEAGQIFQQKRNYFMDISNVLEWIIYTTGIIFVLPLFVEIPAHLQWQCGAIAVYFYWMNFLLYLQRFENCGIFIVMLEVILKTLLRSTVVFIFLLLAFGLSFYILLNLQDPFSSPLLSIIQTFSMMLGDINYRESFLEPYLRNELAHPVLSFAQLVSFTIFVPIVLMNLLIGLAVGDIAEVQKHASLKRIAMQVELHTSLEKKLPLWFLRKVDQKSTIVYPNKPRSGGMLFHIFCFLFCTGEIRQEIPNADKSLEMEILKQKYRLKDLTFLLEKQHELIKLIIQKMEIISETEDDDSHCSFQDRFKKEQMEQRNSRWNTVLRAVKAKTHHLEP", "assay": "Calcium 5 dye [Ca]i assay in HEK-293 Flp-In T-REx cells expressing TRPA1 (agonist response)", "assay_type": "cell-based", "conditions": "for Change in Ca5 fluorescence, individual experiments (CRC raw data): TRPA1 cells", "method": "(§1) The cells were incubated in a 5% CO2 humidified atmosphere at 37 °C. Upon reaching approximately 90% confluence in 75 cm^2 flasks, they were trypsinized and transferred to poly-D-lysine coated 96-well plates (Corning, Castle Hill, NSW, Australia) in L-15 medium supplemented with 1% FBS, 100 U penicillin and 100 µg streptomycin ml^−1 (1% P/S), and 15 mM glucose (80 µL volume per well). After an overnight incubation (maximum of 16 h) in humidified room air at 37 °C, TRPV1 and TRPA1 receptor expression was induced 4 h before experimentation by adding to each well 10 µL tetracycline solution to a final concentration of 1 µg ml^−1.\n(§2) Intracellular calcium [Ca]i levels were assessed using the calcium 5 kit from Molecular Devices (# R8186, Sunnyvale, CA, USA) on a FlexStation 3 Microplate Reader (Molecular Devices, Sunnyvale, CA, USA). […] Probenecid (cat # 50027; Biotium) which helps to prevent expulsion of calcium indicator from the cells was added to a final concentration of 1.25 mM. 90 µL of the dye were loaded into each well of the plate and incubated for 1 h before reading in the FlexStation 3 at 37 °C. Fluorescence was recorded every 2 s (λ excitation = 485 nm, λ emission = 525 nm) for 5 min. After 1 min of baseline recording, 20 µL of the drug, dissolved in HBSS with 1% dimethyl sulfoxide (DMSO) (cat # D2650; Sigma-Aldrich, Melbourne, Australia) was added (final DMSO concentration was 0.1% in well).\n(§3) The response to agonists was expressed as a percentage change from the average baseline measurement taken for 60s before adding drug. Changes in fluorescence resulting from the addition of solvent were subtracted before normalization to baseline. Concentration–response curves (CRC), Emax and EC50 values were determined using a three-parameter logistic equation (GraphPad Prism, San Diego, CA, USA). […] Potencies were expressed as pEC50, which is the negative log of EC50 in moles per litre (Molar). Where appropriate, unpaired Student’s t-test were used to compare the responses of individual compounds in different conditions, while a one-way ANOVA followed by Dunnett’s multiple comparisons test was used to assess potential differences in responses elicited by a range of compounds. P < 0.05 was considered statistically significant."}, "human TRPV1": {"target": "T2, human TRPV1 (Homo sapiens, UniProt Q8NER1)", "T2 construct": "Life Technologies (cells); host or cells: Flp-In T-REx HEK-293", "T2 sequence (Q8NER1 whole entry)": "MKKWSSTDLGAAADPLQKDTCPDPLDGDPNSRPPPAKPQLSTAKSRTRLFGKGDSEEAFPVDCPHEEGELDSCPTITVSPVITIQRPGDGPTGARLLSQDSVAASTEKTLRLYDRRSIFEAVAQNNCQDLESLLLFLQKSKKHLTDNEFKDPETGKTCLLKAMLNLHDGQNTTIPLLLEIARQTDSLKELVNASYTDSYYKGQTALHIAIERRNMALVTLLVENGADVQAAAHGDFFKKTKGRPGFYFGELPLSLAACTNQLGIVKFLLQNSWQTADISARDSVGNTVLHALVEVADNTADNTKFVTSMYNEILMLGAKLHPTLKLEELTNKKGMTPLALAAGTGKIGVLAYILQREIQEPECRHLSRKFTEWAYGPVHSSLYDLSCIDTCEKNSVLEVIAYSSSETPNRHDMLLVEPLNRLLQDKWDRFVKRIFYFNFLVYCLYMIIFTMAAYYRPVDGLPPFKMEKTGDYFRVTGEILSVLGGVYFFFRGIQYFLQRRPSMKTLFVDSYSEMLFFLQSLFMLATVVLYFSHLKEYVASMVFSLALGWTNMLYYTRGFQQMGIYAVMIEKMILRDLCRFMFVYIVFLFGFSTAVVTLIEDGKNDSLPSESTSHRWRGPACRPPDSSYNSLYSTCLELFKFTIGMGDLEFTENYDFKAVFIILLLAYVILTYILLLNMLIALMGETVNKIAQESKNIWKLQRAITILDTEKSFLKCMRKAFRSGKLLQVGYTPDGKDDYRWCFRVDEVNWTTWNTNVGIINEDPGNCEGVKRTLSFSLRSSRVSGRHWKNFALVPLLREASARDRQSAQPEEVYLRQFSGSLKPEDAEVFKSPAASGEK", "assay": "Calcium 5 dye [Ca]i assay in HEK-293 Flp-In T-REx cells expressing TRPV1 (agonist response)", "assay_type": "cell-based", "conditions": "for Change in Ca5 fluorescence, individual experiments (CRC raw data): TRPV1 cells", "method": "as §1, §2, §3"}, "HEK-293 EV cells": {"system": "HEK-293 EV cells", "assay": "Calcium 5 dye [Ca]i assay in HEK-293 empty vector (EV) cells", "assay_type": "cell-based, human", "conditions": "10 µM; HEK-293 EV cells; percentage of predrug baseline", "method": "as §1\nIntracellular calcium [Ca]i levels were assessed using the calcium 5 kit from Molecular Devices (# R8186, Sunnyvale, CA, USA) on a FlexStation 3 Microplate Reader (Molecular Devices, Sunnyvale, CA, USA). […] 90 µL of the dye were loaded into each well of the plate and incubated for 1 h before reading in the FlexStation 3 at 37 °C. […] After 1 min of baseline recording, 20 µL of the drug, dissolved in HBSS with 1% dimethyl sulfoxide (DMSO) (cat # D2650; Sigma-Aldrich, Melbourne, Australia) was added (final DMSO concentration was 0.1% in well).\nas §3"}}, "note": "Values joined by “and” are separate entries in the source; they are usually repeats but may differ in a detail not shown here. Identical values can stand only once.", "data": [{"smiles": "CCCCC/C=C\\C/C=C\\C/C=C\\CCCCC(=O)NCCO", "note": "[γ-LEA, γ-linolenoyl ethanolamide]", "values": [{"measurement": "Elevation of [Ca]i in HEK-293 TRPA1 cells compared with HEK-293 EV cells", "setting": "human TRPA1; 10 µM (cinnamaldehyde 300 µM)", "result": "significantly greater"}, {"measurement": "Change of Ca5 fluorescence, Mean ± SEM, TRPA1 (10 µM)", "setting": "human TRPA1; 10 µM, HEK-293 TRPA1 cells, percentage of predrug baseline", "result": "87 ± 32", "unit": "%"}, {"measurement": "TRPA1 activation at the highest concentration tested", "setting": "human TRPA1; 30 µM", "result": "activated TRPA1"}, {"measurement": "TRPA1 response compared with the highest concentration of cinnamaldehyde (300 µM)", "setting": "human TRPA1; 30 µM", "result": "did not differ"}, {"measurement": "TRPA1 response, Mean± SEM (N)", "setting": "human TRPA1; 30 µM, one-way ANOVA comparison with cinnamaldehyde 300 µM", "result": "311 ± 60"}, {"measurement": "Emax ± SEM % TRPA1 (30 µM)", "setting": "human TRPA1; highest tested concentration (30 µM) or derived from concentration-response curves (cinnamaldehyde)", "result": "311 ± 11", "unit": "%"}, {"measurement": "Change in Ca5 fluorescence, individual experiments (CRC raw data)", "setting": "human TRPA1; log concentration -4.52288 (M)", "result": "346.049 and 274.809 and 332.645 and 317.863 and 295.869 and 300.839"}, {"measurement": "Change in Ca5 fluorescence, individual experiments (CRC raw data)", "setting": "human TRPA1; log concentration -5 (M)", "result": "11.624 and 8.016 and 83.7476 and 222.133 and 100.409 and 97.3092"}, {"measurement": "Change in Ca5 fluorescence, individual experiments (CRC raw data)", "setting": "human TRPA1; log concentration -5.52288 (M)", "result": "5.237 and 1.372 and 11.2552 and 5.494 and 2.231 and 27.0912"}, {"measurement": "Change in Ca5 fluorescence, individual experiments (CRC raw data)", "setting": "human TRPA1; log concentration -6 (M)", "result": "2.963 and 1.112 and 12.1911 and 2.48 and 2.092 and 1.749"}, {"measurement": "Change in Ca5 fluorescence, individual experiments (CRC raw data)", "setting": "human TRPA1; log concentration -6.52288 (M)", "result": "0.5786 and 1.167 and 6.112 and 4.171 and 1.807 and 1.825"}, {"measurement": "Change in Ca5 fluorescence, individual experiments (CRC raw data)", "setting": "human TRPA1; log concentration -7 (M)", "result": "0.7736 and 1.971 and 6.385 and 5.071 and 2.235 and 0.6536"}, {"measurement": "Elevation of [Ca]i in HEK-293 TRPV1 cells compared with HEK-293 EV cells", "setting": "human TRPV1; 10 µM", "result": "significantly greater"}, {"measurement": "Change of Ca5 fluorescence, Mean ± SEM, TRPV1 (10 µM)", "setting": "human TRPV1; 10 µM, HEK-293 TRPV1 cells, percentage of predrug baseline", "result": "277 ± 67", "unit": "%"}, {"measurement": "Maximal TRPV1 response compared with the highest concentration of capsaicin", "setting": "human TRPV1; 30 µM vs capsaicin 10 µM", "result": "did not differ"}, {"measurement": "TRPV1 response, Mean± SEM (N)", "setting": "human TRPV1; 30 µM, one-way ANOVA comparison with capsaicin 10 µM", "result": "354± 56"}, {"measurement": "Emax ± SEM % TRPV1 (30 µM)", "setting": "human TRPV1; highest tested concentration (30 µM) or derived from concentration-response curves (DHEA, AEA, NADA, capsaicin)", "result": "354 ± 39", "unit": "%"}, {"measurement": "Change in Ca5 fluorescence, individual experiments (CRC raw data)", "setting": "human TRPV1; log concentration -4.52288 (M)", "result": "350.183 and 323.986 and 542.155 and 300.489 and 279.486 and 328.331"}, {"measurement": "Change in Ca5 fluorescence, individual experiments (CRC raw data)", "setting": "human TRPV1; log concentration -5 (M)", "result": "408.892 and 291.398 and 513.101 and 87.8703 and 117.804 and 243.201"}, {"measurement": "Change in Ca5 fluorescence, individual experiments (CRC raw data)", "setting": "human TRPV1; log concentration -5.52288 (M)", "result": "21.7947 and 80.3389 and 37.6766 and 7.854 and 2.348 and 95.5783"}, {"measurement": "Change in Ca5 fluorescence, individual experiments (CRC raw data)", "setting": "human TRPV1; log concentration -6 (M)", "result": "179.174 and 9.167 and 5.6781 and 5.979 and 3.41 and 2.934"}, {"measurement": "Change in Ca5 fluorescence, individual experiments (CRC raw data)", "setting": "human TRPV1; log concentration -6.52288 (M)", "result": "5.188 and 2.355 and 8.6025 and 1.698 and 1.3988 and 2.387"}, {"measurement": "Change in Ca5 fluorescence, individual experiments (CRC raw data)", "setting": "human TRPV1; log concentration -7 (M)", "result": "0.9319 and 4.487 and 3.741 and 0.8649 and 0.1851 and 3.24"}, {"measurement": "Change of Ca5 fluorescence, Mean ± SEM, EV (10 µM)", "setting": "HEK-293 EV cells", "result": "11 ± 2", "unit": "%"}]}, {"smiles": "C[C@H](CCC(=O)O)C[C@H](C)C[C@H](C)C(=O)/C=C(\\O)[C@H](C)C[C@H](C)C/C=C/[C@@H](C)[C@@H](O)[C@@H](C)[C@@H](O)C[C@@H]1CC[C@@](C)([C@H]2CC[C@@](C)([C@@H](C)O)O2)O1", "note": "[Ionomycin, ionomycin, reference compound]", "values": [{"measurement": "Change in Ca5 fluorescence", "setting": "human TRPV1; 5 µM, HEK-293 TRPV1 cells, dye saturation control", "result": "673 ± 25", "unit": "%"}]}]}
